# Data: US20090012085A1, “DOSAGE FORMS AND METHODS OF TREATMENT USING A TYROSINE KINASE INHIBITOR” (priority 2005, published 2009)
# Like-named read-outs stand apart in the source and are kept apart here.
# Experiment: Phase I dose-escalating study, plasma pharmacokinetics in patients with solid tumor
# Type: in vivo, human
# Settings: human, plasma; for concentration at 3 h: nominal time 3 h; for concentration at 6 h: nominal time 6 h; for concentration at 8 h: nominal time 8 h; for concentration at 10 h: nominal time 10 h; for concentration at 4 h: nominal time 4 h; for concentration at 0 h: nominal time 0 h; for concentration at 1 h: nominal time 1 h; for concentration at 2 h: nominal time 2 h; for concentration at 20 h: nominal time 20 h; for concentration at 48 h: nominal time 48 h; for concentration at 72 h: nominal time 72 h; for concentration at 96 h: nominal time 96 h; for concentration at 144 h: nominal time 144 h; for AUC(0-t): read-out: AUC(0-24), mean (% CV); for Cmax: read-out: Cmax, mean (% CV); for Tmax: read-out: tmax, mean (% CV); for half-life: read-out: t½, mean (% CV) (converted)
# Procedure: Cmax values, or maximum total plasma concentrations, of a compound of formula 1 can be measured according to techniques well known to those skilled in the art. For example, after a compound of formula 1 has been administered to a mammal, blood samples can be taken at fixed time points over a period of time (e.g. 24 hours) and the serum or plasma concentration of compound of formula 1 can be measured using standard analytical techniques known in the art. In vivo determinations Cmax can then be made by plotting the serum or plasma concentration of compound of formula 1 along the ordinate (y-axis) against time along the abscissa (x-axis).
# The maleate salt of compound 1 was administered to human patients with solid tumor malignancies not amenable to conventional therapies in a Phase I dose-escalating multicenter study. The types of tumor malignancies included colorectal carcinoma, renal cell carcinoma, esophageal carcinoma, thymus carcinoma, mastocytosis, lung cancer and multiple endocrine neoplasia type II. Patients were treated in cohorts of 6 with escalating QD (once per day) doses of the maleate salt of compound 1 under fasting conditions. Each study cycle of 5 weeks consisted of 4 weeks of treatment followed by 1 week of rest (4/1 schedule), or continuous dosing without any rest period.
# Full pharmacokinetic profiles were collected on Cycle 1 Day 1 (C1D1), Cycle 1 Day 28 (C1D28), and Cycle 2 Day 28 (C2D28). Preliminary pharmacokinetic parameters for the first 44 patients, i.e. the first 7 dosing groups, were estimated using nominal collection times and quality-controlled, non-quality assured bioanalytical data. The dosage amounts in Table 1A and Table 1B are free base equivalent amounts.
# [1] = 150 mg QD, 150 mg QD 4/1 (n = 5), read-out: Mean plasma concentration following the last dose on cycle 1 day 28
# [2] = 150 mg QD, 150 mg QD Continuous (n = 6), read-out: Mean plasma concentration following the last dose on cycle 1 day 28
# [3] = 150 mg, 150 mg QD 4/1 (n = 5), read-out: Mean plasma concentration following the last dose on cycle 1 day 28
# [4] = 150 mg, 150 mg QD (4/1), C1D1 (n = 7)
# [5] = 150 mg, 150 mg QD (4/1), C1D28 (n = 5)
# [6] = 150 mg, 150 mg QD (4/1), C2D28 (n = 4)
# [7] = 150 mg, 150 mg QD Continuous (n = 6), read-out: Mean plasma concentration following the last dose on cycle 1 day 28
# [8] = 200 mg QD, 200 mg QD 4/1 (n = 5), read-out: Mean plasma concentration following the last dose on cycle 1 day 28
# [9] = 200 mg, 200 mg QD 4/1 (n = 5), read-out: Mean plasma concentration following the last dose on cycle 1 day 28
# [10] = 200 mg, 200 mg QD (4/1), C1D1 (n = 6)
smiles,measurement,setting,value
"Cc1[nH]c(/C=C2\C(=O)Nc3ccc(F)cc32)c(C)c1C(=O)NC[C@H](O)CN1CCOCC1 [compound 1, 5-[(Z)-(5-fluoro-2-oxo-1,2-dihydro-3H-indol-3-ylidene)methyl]-N-[(2S)-2-hydroxy-3-morpholin-4-ylpropyl]-2,4-dimethyl-1H-pyrrole-3-carboxamide]",concentration at 3 h,[1],268 ng/mL
same,concentration at 6 h,[1],161 ng/mL
same,concentration at 8 h,[1],142 ng/mL
same,concentration at 10 h,[1],132 ng/mL
same,concentration at 3 h,[2],407 ng/mL
same,concentration at 4 h,[2],519 ng/mL
same,concentration at 6 h,[2],471 ng/mL
same,concentration at 8 h,[2],404 ng/mL
same,concentration at 10 h,[2],345 ng/mL
same,concentration at 0 h,[3],99.8 ng/mL
same,concentration at 1 h,[3],184 ng/mL
same,concentration at 2 h,[3],252 ng/mL
same,concentration at 4 h,[3],231 ng/mL
same,concentration at 20 h,[3],42.9 ng/mL
same,concentration at 24 h,"150 mg, 150 mg QD 4/1 (n = 5), nominal time 24 h, read-out: Mean plasma concentration following the last dose on cycle 1 day 28",94.8 ng/mL
same,concentration at 48 h,[3],31.2 ng/mL
same,concentration at 72 h,[3],9.08 ng/mL
same,concentration at 96 h,[3],4.17 ng/mL
same,concentration at 144 h,[3],1.52 ng/mL
same,AUC(0-t),[4],3370 ng·h/mL
same,concentration at 24 h,"150 mg, 150 mg QD (4/1), C1D1 (n = 7), read-out: C(trough, 24 h), mean (% CV)",81.7 ng/mL
same,Cmax,[4],421 ng/mL
same,Tmax,[4],1.6 h
same,half-life,[4],13.6 h
same,AUC(0-t),[5],2960 ng·h/mL
same,concentration at 24 h,"150 mg, 150 mg QD (4/1), C1D28 (n = 5), read-out: C(trough, 24 h), mean (% CV)",75.8 ng/mL
same,Cmax,[5],299 ng/mL
same,Tmax,[5],1.8 h
same,half-life,[5],19.3 h
same,AUC(0-t),[6],3090 ng·h/mL
same,concentration at 24 h,"150 mg, 150 mg QD (4/1), C2D28 (n = 4), read-out: C(trough, 24 h), mean (% CV)",54.6 ng/mL
same,Cmax,[6],269 ng/mL
same,Tmax,[6],3 h
same,half-life,[6],13.2 h
same,concentration at 0 h,[7],124 ng/mL
same,concentration at 1 h,[7],244 ng/mL
same,concentration at 2 h,[7],453 ng/mL
same,concentration at 20 h,[7],104 ng/mL
same,concentration at 24 h,"150 mg, 150 mg QD Continuous (n = 6), nominal time 24 h, read-out: Mean plasma concentration following the last dose on cycle 1 day 28",271 ng/mL
same,concentration at 3 h,[8],396 ng/mL
same,concentration at 4 h,[8],441 ng/mL
same,concentration at 6 h,[8],463 ng/mL
same,concentration at 8 h,[8],349 ng/mL
same,concentration at 10 h,[8],361 ng/mL
same,concentration at 0 h,[9],353 ng/mL
same,concentration at 1 h,[9],408 ng/mL
same,concentration at 2 h,[9],408 ng/mL
same,concentration at 20 h,[9],189 ng/mL
same,concentration at 24 h,"200 mg, 200 mg QD 4/1 (n = 5), nominal time 24 h, read-out: Mean plasma concentration following the last dose on cycle 1 day 28",259 ng/mL
same,concentration at 48 h,[9],87.6 ng/mL
same,concentration at 72 h,[9],31.4 ng/mL
same,concentration at 96 h,[9],13 ng/mL
same,concentration at 144 h,[9],4.77 ng/mL
same,AUC(0-t),[10],3440 ng·h/mL
same,concentration at 24 h,"200 mg, 200 mg QD (4/1), C1D1 (n = 6), read-out: C(trough, 24 h), mean (% CV)",147 ng/mL
same,Cmax,[10],262 ng/mL
same,Tmax,[10],8.7 h
